Source: patent US10799507B2, “5-(7H-pyrrolo[2,3-d]pyrimidin-4-yl)-5-azaspiro[2.5]octane-8-carboxylic acid derivatives as novel JAK kinase inhibitors” (LEO Pharma A/S, priority 2017, dated 2020)
pEC50: −log10 of the molar value.

How the values were obtained:
[1] = in vitro metabolic stability in human liver microsomes; type: in vitro ADME; settings: human, liver microsomes, 0.5 μM compound, 0.5 mg/mL microsomes, NADPH, 40 min, 37° C.; read-out: Human liver microsome Clapp (apparent intrinsic clearance)
Description: To assess the in vitro metabolic stability, the compounds (0.5 μM) were incubated in duplicates with human liver microsomes (0.5 mg/mL) in phosphate buffer and NADPH, in 96-well plates for 40 min (37° C.), using a liquid handling robot (Hamilton Microlab Star). Sample aliquots were taken at 0, 5, 10, 20 and 40 min, and dispensed into cold acetonitrile, in order to stop the reactions. The plates were centrifuged for 30 minutes before the samples were analyzed using liquid chromatography coupled to a time-of-flight mass spectrometer (AB Sciex API5600). The compound depletion over time was used to estimate the elimination rate constant, from which the apparent intrinsic clearance, Clapp, was calculated and the values are listed in Table 2.

[2] = molecular target: JAK1 (Homo sapiens (Human), UniProt P23458); test: JAK kinase assay (HTRF), JAK1; type: biochemical; settings: catalytic domain, ATP at Km (7 μM)
Chain of JAK1 (P23458 850-1154): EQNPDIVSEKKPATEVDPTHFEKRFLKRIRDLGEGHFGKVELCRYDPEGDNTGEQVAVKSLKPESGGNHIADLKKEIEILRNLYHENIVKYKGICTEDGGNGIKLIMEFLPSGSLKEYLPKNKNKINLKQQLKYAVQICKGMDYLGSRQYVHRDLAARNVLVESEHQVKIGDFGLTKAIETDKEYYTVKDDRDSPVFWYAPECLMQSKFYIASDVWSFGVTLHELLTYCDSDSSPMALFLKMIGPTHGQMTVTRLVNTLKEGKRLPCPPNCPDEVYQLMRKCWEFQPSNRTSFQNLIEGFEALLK
Outline: (§1)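 Catalytic-domain human JAK1 (GST-tagged, aa 850-1154) or His-tagged JAK2, baculovirus-expressed, phosphorylated 1 µM biotinylated TK peptide at Km ATP (JAK1 7 µM, 10 mM MgCl2, 50 nM SEB; JAK2 4 µM, 5 mM MgCl2) in pH 7.0 Hepes, 20-30 min RT. EDTA stop; overnight streptavidin-XL665/cryptate HTRF read.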

[3] = molecular target: JAK2 (Homo sapiens (Human), UniProt O60674); test: JAK kinase assay (HTRF), JAK2; type: biochemical; settings: catalytic domain, ATP at Km (4 μM)
Chain of JAK2 (O60674 849-1124): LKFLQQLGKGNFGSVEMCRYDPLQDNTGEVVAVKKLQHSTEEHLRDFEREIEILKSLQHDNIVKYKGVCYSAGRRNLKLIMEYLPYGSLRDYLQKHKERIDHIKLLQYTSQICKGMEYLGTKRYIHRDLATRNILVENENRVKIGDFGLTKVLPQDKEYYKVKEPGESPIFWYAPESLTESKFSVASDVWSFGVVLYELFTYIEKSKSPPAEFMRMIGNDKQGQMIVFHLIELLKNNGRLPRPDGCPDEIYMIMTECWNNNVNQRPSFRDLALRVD
Outline: as §1

[4] = molecular target: JAK3 (Homo sapiens (Human), UniProt P52333); test: JAK kinase assay (HTRF), JAK3; type: biochemical; settings: catalytic domain, ATP at Km (2 μM)
Chain of JAK3 (P52333 822-1111): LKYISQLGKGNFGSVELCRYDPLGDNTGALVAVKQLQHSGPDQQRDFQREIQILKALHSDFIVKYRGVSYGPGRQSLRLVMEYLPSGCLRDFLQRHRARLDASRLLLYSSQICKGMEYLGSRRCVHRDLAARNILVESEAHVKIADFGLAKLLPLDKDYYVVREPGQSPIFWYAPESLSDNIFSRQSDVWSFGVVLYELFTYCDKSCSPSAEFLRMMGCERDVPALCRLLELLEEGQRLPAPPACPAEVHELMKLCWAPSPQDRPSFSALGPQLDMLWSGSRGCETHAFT
Outline: (§2)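 HTRF read-out of biotinylated TK peptide phosphorylation (1 μM) after a 20-30 min RT reaction in pH 7.0 Hepes buffer with 5 mM MgCl2 and 0.75% DMSO. JAK3 (His-tagged catalytic domain) used 2 μM ATP; TYK2 (GST-tagged, aa 871-1187) used 13 μM ATP plus 50 nM SEB, each at ATP Km.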

[5] = molecular target: TYK2 (Homo sapiens (Human), UniProt P29597); test: JAK kinase assay (HTRF), TYK2; type: biochemical; settings: catalytic domain, ATP at Km (13 μM)
Chain of TYK2 (P29597 871-1187): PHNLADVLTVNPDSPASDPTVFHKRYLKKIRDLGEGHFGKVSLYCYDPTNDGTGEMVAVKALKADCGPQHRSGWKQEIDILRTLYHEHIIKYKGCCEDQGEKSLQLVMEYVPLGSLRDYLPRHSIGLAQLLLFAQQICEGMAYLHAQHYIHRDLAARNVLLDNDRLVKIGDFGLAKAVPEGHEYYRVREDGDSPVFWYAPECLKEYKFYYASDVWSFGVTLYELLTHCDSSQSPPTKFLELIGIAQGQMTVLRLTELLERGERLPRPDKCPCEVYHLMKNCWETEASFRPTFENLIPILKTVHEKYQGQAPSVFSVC
Outline: as §2

SMILES	CLint scaled at 0.5 μM [1] [L/h/kg]	pEC50 [2]	pEC50 [3]	pEC50 [4]	pEC50 [5]
O=C(N[C@@H](CO)[C@H](O)c1ccc(F)cc1)[C@H]1CCN(c2ncnc3[nH]ccc23)CC12CC2 [Example 50, (8S)-N-[(1S,2R)-2-(4-fluorophenyl)-2-hydroxy-1-(hydroxymethyl)ethyl]-5-(7H-pyrrolo[2,3-d]pyrimidin-4-yl)-5-azaspiro[2.5]octane-8-carboxamide]	6.54	8.46	8.15	7.64	7.27
N#Cc1ccc(CNC(=O)[C@H]2CCN(c3ncnc4[nH]ccc34)CC23CC3)cc1 [Example 13, (8S)-N-[(4-cyanophenyl)methyl]-5-(7H-pyrrolo[2,3-d]pyrimidin-4-yl)-5-azaspiro[2.5]octane-8-carboxamide]	4.92	9.05	8.21	8.05	7.09
C[C@H](NC(=O)[C@H]1CCN(c2ncnc3[nH]ccc23)CC12CC2)[C@@H](O)c1ccc(F)c(F)c1 [Example 149, (8S)-N-[(1S,2S)-2-(3,4-difluorophenyl)-2-hydroxy-1-methyl-ethyl]-5-(7H-pyrrolo[2,3-d]pyrimidin-4-yl)-5-azaspiro[2.5]octane-8-carboxamide]	> 12	9.40	6.70	9.22	8.38
O=C(N[C@@H](CO)c1ccc(F)cc1F)[C@H]1CCN(c2ncnc3[nH]ccc23)CC12CC2 [Example 34, (8S)-N-[(1R)-1-(2,4-difluorophenyl)-2-hydroxy-ethyl]-5-(7H-pyrrolo[2,3-d]pyrimidin-4-yl)-5-azaspiro[2.5]octane-8-carboxamide]	4.14	8.72	8.43	8.19	7.48
O=C(N[C@H](CO)c1ccccc1)C1CCN(c2ncnc3[nH]ccc23)CC12CC2 (stereo partly drawn) [Example 127, N-[(1S)-2-hydroxy-1-phenyl-ethyl]-5-(7H-pyrrolo[2,3-d]pyrimidin-4-yl)-5-azaspiro[2.5]octane-8-carboxamide]	2.64	7.70	7.28	7.17	5.96
O=C(NCC1(CO)CCCC1)C1CCN(c2ncnc3[nH]ccc23)CC12CC2 (stereo not drawn) [Example 58, N-[[1-(hydroxymethyl)cyclopentyl]methyl]-5-(7H-pyrrolo[2,3-d]pyrimidin-4-yl)-5-azaspiro[2.5]octane-8-carboxamide]	8.58	8.39	7.89	7.52	6.85
C[C@](CO)(NC(=O)[C@H]1CCN(c2ncnc3[nH]ccc23)CC12CC2)c1ccc(C#N)cc1 [Example 27, (8S)-N-[(1S)-1-(4-cyanophenyl)-2-hydroxy-1-methyl-ethyl]-5-(7H-pyrrolo[2,3-d]pyrimidin-4-yl)-5-azaspiro[2.5]octane-8-carboxamide]	3.66	8.85	8.49	8.15	7.35
O=C(NCC1(CO)CC(F)(F)C1)[C@H]1CCN(c2ncnc3[nH]ccc23)CC12CC2 [Example 23, (8S)-N-[[3,3-difluoro-1-(hydroxymethyl)cyclobutyl]methyl]-5-(7H-pyrrolo[2,3-d]pyrimidin-4-yl)-5-azaspiro[2.5]octane-8-carboxamide]	2.4	8.89	8.57	8.17	7.70
O=C(OCC1CC(F)(F)C1)[C@H]1CCN(c2ncnc3[nH]ccc23)CC12CC2 [Example 154, (3,3-difluorocyclobutyl)methyl (8S)-5-(7H-pyrrolo[2,3-d]pyrimidin-4-yl)-5-azaspiro[2.5]octane-8-carboxylate]	8.94	9.05	8.77	8.29	7.80
C[C@H](NC(=O)[C@H]1CCN(c2ncnc3[nH]ccc23)CC12CC2)c1ccc(C#N)cn1 [Example 48, (8S)-N-[(1S)-1-(5-cyano-2-pyridyl)ethyl]-5-(7H-pyrrolo[2,3-d]pyrimidin-4-yl)-5-azaspiro[2.5]octane-8-carboxamide]	2.88	8.49	7.99	7.39	6.89
O=C(NC[C@H](O)C1CCCCC1)[C@H]1CCN(c2ncnc3[nH]ccc23)CC12CC2 [Example 15, (8S)-N-[(2R)-2-cyclohexyl-2-hydroxy-ethyl]-5-(7H-pyrrolo[2,3-d]pyrimidin-4-yl)-5-azaspiro[2.5]octane-8-carboxamide]	> 12	9.05	8.77	8.43	8.13
O=C(N[C@@H](CO)c1ccc(F)cc1)[C@H]1CCN(c2ncnc3[nH]ccc23)CC12CC2 [Example 17, (8S)-N-[(1R)-1-(4-fluorophenyl)-2-hydroxy-ethyl]-5-(7H-pyrrolo[2,3-d]pyrimidin-4-yl)-5-azaspiro[2.5]octane-8-carboxamide]	2.58	9.00	8.52	8.24	7.69
N#Cc1ccc(CNC(=O)C2CCN(c3ncnc4[nH]ccc34)CC23CC3)cc1 (stereo not drawn) [Example 26, N-[(4-cyanophenyl)methyl]-5-(7H-pyrrolo[2,3-d]pyrimidin-4-yl)-5-azaspiro[2.5]octane-8-carboxamide]	4.68	8.85	8.19	7.95	6.71
N#Cc1ccc([C@H](CO)NC(=O)C2CCN(c3ncnc4[nH]ccc34)CC23CC3)cc1 (stereo partly drawn) [Example 19, N-[(1R)-1-(4-cyanophenyl)-2-hydroxy-ethyl]-5-(7H-pyrrolo[2,3-d]pyrimidin-4-yl)-5-azaspiro[2.5]octane-8-carboxamide]	5.28	8.96	8.40	8.08	6.96
N#Cc1ccc([C@H](O)CNC(=O)[C@H]2CCN(c3ncnc4[nH]ccc34)CC23CC3)cc1 [Example 8, (8S)-N-[(2S)-2-(4-cyanophenyl)-2-hydroxy-ethyl]-5-(7H-pyrrolo[2,3-d]pyrimidin-4-yl)-5-azaspiro[2.5]octane-8-carboxamide]	> 12	9.22	8.57	8.31	7.75
O=C(NC[C@@H](O)c1ccccc1)[C@H]1CCN(c2ncnc3[nH]ccc23)CC12CC2 [Example 51, (8S)-N-[(2S)-2-hydroxy-2-phenyl-ethyl]-5-(7H-pyrrolo[2,3-d]pyrimidin-4-yl)-5-azaspiro[2.5]octane-8-carboxamide]	> 12	8.46	7.95	7.31	7.39
O=C(N[C@@H](CO)[C@H](O)c1ccc(F)cn1)[C@H]1CCN(c2ncnc3[nH]ccc23)CC12CC2 (single isomer, unassigned) [Example 30]	3	8.85	8.62	7.57	7.52
O=C(NC[C@H](O)C1CCCC1)[C@H]1CCN(c2ncnc3[nH]ccc23)CC12CC2 [Example 11, (8S)-N-[(2R)-2-cyclopentyl-2-hydroxy-ethyl]-5-(7H-pyrrolo[2,3-d]pyrimidin-4-yl)-5-azaspiro[2.5]octane-8-carboxamide]	8.88	9.10	8.68	8.17	7.74
C[C@@H](NC(=O)C1CCN(c2ncnc3[nH]ccc23)CC12CC2)c1ccc(C#N)cc1 (stereo partly drawn) [Example 111, N-[(1R)-1-(4-cyanophenyl)ethyl]-5-(7H-pyrrolo[2,3-d]pyrimidin-4-yl)-5-azaspiro[2.5]octane-8-carboxamide]	6.66	7.95	7.28	6.91	6.03
C[C@H](NC(=O)C1CCN(c2ncnc3[nH]ccc23)CC12CC2)c1cccc(C#N)c1 (stereo partly drawn) [Example 86, N-[(1S)-1-(3-cyanophenyl)ethyl]-5-(7H-pyrrolo[2,3-d]pyrimidin-4-yl)-5-azaspiro[2.5]octane-8-carboxamide]	> 12	8.15	7.95	7.42	7.32
C[C@H](NC(=O)[C@H]1CCN(c2ncnc3[nH]ccc23)CC12CC2)c1ccc(C#N)cc1F [Example 20, (8S)-N-[(1S)-1-(4-cyano-2-fluoro-phenyl)ethyl]-5-(7H-pyrrolo[2,3-d]pyrimidin-4-yl)-5-azaspiro[2.5]octane-8-carboxamide]	9.66	8.96	8.51	7.75	7.29
